Data on 27 compounds can be found in patent US6313177A, “D-mannitol derivatives as HIV aspartyl protease inhibitors” (Pharmacor Inc., priority 1999, dated 2001).

In the first test the target is T1, recombinant HIV-1 protease (Human immunodeficiency virus type 1 group M subtype B, UniProt P04585).
T1 construct: recombinant HIV-1 protease; purchased Bachem Bioscience
Nature of the test: Fluorometric (FRET) enzymatic assay for the inhibition constant (Ki) against the HIV protease. It counts as biochemical.
Settings: not given
The source says: Enzymatic Assay for Determining the Inhibition Constant (Ki) of Synthetic Compounds Prepared Against the HIV Protease
This is a fluorometric assay based on the cleavage by protease of a substrate carrying a donor group (EDANS, excitation at 340 nm and emission at 490 nm) and an acceptor group (DABCYL) on each side of the cleavage site, interacting together through fluorescence resonance energy transfer (FRET). Cleavage of the substrate by protease stops energy exchange between the two groups, resulting in a time-dependent increase in fluorescence intensity that is linearly related to the extent of substrate hydrolysis.
The enzymatic assay is done at 30° C. in a spectrophotometer microcuvet, in a total volume of 400 μL. The apparatus used for readings is a UV-visible Cary 1 spectrophotometer made by Varian. The reaction is run first in the absence of protease inhibitors for 2 min, using 355 μL of buffer at pH 4.7 (sodium acetate 100 mM, NaCl 1 M, EDTA 1 mM, DTT 1 mM, dimethylsulfoxide 10%, and BSA 1 mg/mL), 40 μL of substrate H-2930 from Molecular Probes (final concentration 10 μM) and 5 μL of recombinant HIV-1 protease (final concentration 18.3 nM) purchased from Bachem Bioscience. Fluorescence readings at […] are taken continuously during the reaction, allowing determination of the enzyme's initial velocity (v0). At the end of the 2 min incubation, the potential inhibitor at a defined concentration in a volume of 2 μL is added to the reaction, and fluorescence readings are taken for another 2 min, allowing determination of enzyme velocity (vi) in the presence of the inhibitory compound. Several concentrations of the putative inhibitors are tested in the assay. After calculation of vo and vi, the inhibition constant (Ki) of the compound is determined using the equation of Henderson: [formula]
and [I]=inhibitor concentration, [S ]=substrate concentration, Km=Michaelis-Menten constant, Kiapp =apparent Ki
Note that the Michaelis-Menten constant of HIV protease is determined by running the assay without inhibitors, using several concentrations of substrate, and plotting the results as a Cornish-Bowden graph with the ratio substrate concentration/velocity as the ordinate and substrate concentration as the abscissa.
Turning to `O[C@@H]([C@H](O)[C@@H](COCc1ccc(Cl)cc1)OCc1ccccc1)[C@@H](COCc1ccc(Cl)cc1)OCc1ccccc1` [Compound 55, 1,6-di-O-(4-chlorobenzyl)-2,5-di-O-benzyl-D-mannitol], the Ki worked out at 5200 nM. Same read-out and setting: the figure for `OCc1ccc(CO[C@H](COCc2ccccc2)[C@@H](O)[C@H](O)[C@@H](COCc2ccccc2)OCc2ccc(CO)cc2)cc1` [Compound 45, 1,6-di-O-benzyl-2,5-di-O-(4-hydroxymethylbenzyl)-D-mannitol] is 10000 nM.

Staying with this test, now noted: Table 1, benzylated D-mannitol derivatives; pH 4.7, 30° C., substrate 10 μM, protease 18.3 nM.
On to `O[C@@H]([C@H](O)[C@@H](COCc1c(F)cccc1F)OCc1ccccc1)[C@@H](COCc1c(F)cccc1F)OCc1ccccc1` [Compound 35, 1,6-di-O-(2,6-difluorobenzyl)-2,5-di-O-benzyl-D-mannitol], for which the Ki is 330 ± 50 nM.

`COC(=O)c1ccc(COC[C@@H](OCc2ccccc2)[C@@H](O)[C@H](O)[C@@H](COCc2ccc(C(=O)OC)cc2)OCc2ccccc2)cc1` [Compound 29, 1,6-di-O-(4-carbomethoxybenzyl)-2,5-di-O-benzyl-D-mannitol]: the inhibition constant (Ki) turned out to be 2000 nM. With `O[C@@H]([C@H](O)[C@@H](COCc1ccccc1F)OCc1ccc(F)cc1)[C@@H](COCc1ccccc1F)OCc1ccc(F)cc1` [Compound 40, 1,6-di-O-(2-fluorobenzyl)-2,5-di-O-(4-fluorobenzyl)-D-mannitol], the Ki came out at 280 nM. The same measure, in the same setting: the figure for `O[C@@H]([C@H](O)[C@@H](COCc1cccc(F)c1)OCc1ccccc1)[C@@H](COCc1cccc(F)c1)OCc1ccccc1` [Compound 53, 1,6-di-O-(3-fluorobenzyl)-2,5-di-O-(benzyl)-D-mannitol] is 1500 nM; for `Oc1ccc(COC[C@@H](OCc2ccc(F)cc2)[C@@H](O)[C@H](O)[C@@H](COCc2ccc(O)cc2)OCc2ccc(F)cc2)cc1` [Compound 4, 1,6-di-O-(4-hydroxybenzyl)-2,5-di-O-(4-fluorobenzyl)-D-mannitol] it is 400 nM; for `O[C@@H]([C@H](O)[C@@H](COCc1ccc(F)cc1F)OCc1ccccc1)[C@@H](COCc1ccc(F)cc1F)OCc1ccccc1` [Compound 33, 1,6-di-O-(2,4-fluorobenzyl)-2,5-di-O-benzyl-D-mannitol] it is 4200 ± 500 nM. In the case of `O[C@@H]([C@H](O)[C@@H](COCc1ccccc1)OCc1ccc(Br)cc1)[C@@H](COCc1ccccc1)OCc1ccc(Br)cc1` [Compound 18, 1,6-di-O-benzyl, 2,5-di-O-(4-bromobenzyl)-D-mannitol], the Ki turned out to be 2100 nM. `Cc1ccc(COC[C@@H](OCc2ccccc2)[C@@H](O)[C@H](O)[C@@H](COCc2ccc(C)cc2)OCc2ccccc2)cc1` [Compound 26, 1,6-di-O-(4-methylbenzyl)-2,5-di-O-benzyl-D-mannitol]: the Ki is 3000 nM. Same read-out and setting: the figure for `Cc1ccc(CO[C@H](COCc2ccccc2F)[C@@H](O)[C@H](O)[C@@H](COCc2ccccc2F)OCc2ccc(C)cc2)cc1` [Compound 56, 1,6-di-O-(2-fluorobenzyl)-2,5-di-O-(4-methylbenzyl)-D-mannitol] is 3500 nM.

Consider `O[C@@H]([C@H](O)[C@@H](COCc1ccccc1)OCc1ccc(Cl)cc1)[C@@H](COCc1ccccc1)OCc1ccc(Cl)cc1` [Compound 17, 1,6-di-O-benzyl-2,5-di-O-(4-chlorobenzyl)-D-mannitol], for which the inhibition constant Ki was 2000 nM. The same measure, in the same setting: then `O[C@@H]([C@H](O)[C@@H](COCc1ccccc1F)OCc1cccc(F)c1)[C@@H](COCc1ccccc1F)OCc1cccc(F)c1` [Compound 57, 1,6-di-O-(2-fluorobenzyl)-2,5-di-O-(3-fluorobenzyl)-D-mannitol], with 1500 nM. In the case of `N#Cc1ccc(CO[C@H](COCc2ccccc2)[C@@H](O)[C@H](O)[C@@H](COCc2ccccc2)OCc2ccc(C#N)cc2)cc1` [Compound 14, 1,6-di-O-benzyl-2,5-di-O-(4-cyanobenzyl)-D-mannitol], the Ki came to 5400 nM. In the case of `O[C@@H]([C@H](O)[C@@H](COCc1ccccc1F)OCc1ccc(F)cc1)[C@@H](COCc1ccccc1F)OCc1ccccc1` [Compound 62, 1,6-di-O-(2-fluorobenzyl)-2-O-benzyl-5-O-(4-fluorobenzyl)-D-mannitol], the Ki was determined as 220 nM. The same measure, in the same setting: the figure for `O=C(O)c1ccc(COC[C@@H](OCc2ccccc2)[C@@H](O)[C@H](O)[C@@H](COCc2ccc(C(=O)O)cc2)OCc2ccccc2)cc1` [Compound 51, 1,6-di-O-(4-carboxybenzyl)-2,5-di-O-benzyl-D-mannitol] is 5000 nM; for `O[C@@H]([C@H](O)[C@@H](COCc1ccccc1F)OCc1ccccc1)[C@@H](COCc1ccccc1)OCc1ccccc1` [Compound 10, 1,2,5-tri-O-benzyl-6-O-(2-fluorobenzyl)-D-mannitol] it is 400 nM; for `OCc1ccc(COC[C@@H](OCc2ccccc2)[C@@H](O)[C@H](O)[C@@H](COCc2ccc(CO)cc2)OCc2ccccc2)cc1` [Compound 48, 1,6-di-(4-hydroxymethylbenzyl)-2,5-dibenzyl-D-mannitol] it is 1200 nM. Still for that read-out and setting: the figure for `O[C@@H]([C@H](O)[C@@H](COCc1ccc(OCc2ccccc2)cc1)OCc1ccc(F)cc1)[C@@H](COCc1ccc(OCc2ccccc2)cc1)OCc1ccc(F)cc1` [Compound 58, 1,6-di-O-(4-benzyloxybenzyl)-2,5-di-O-(4-fluorobenzyl)-D-mannitol] is 5000 nM.

The test is the same for the next values; noted with them: Table 2, tetra-substituted D-mannitol derivatives; pH 4.7, 30° C., substrate 10 μM, protease 18.3 nM.
For the compound `O[C@@H]([C@H](O)[C@@H](COCc1ccccc1F)OCc1cccs1)[C@@H](COCc1ccccc1F)OCc1ccc(F)cc1` [Compound 97, 1,6-di-O-(2-fluorobenzyl)-2-O-(4-fluorobenzyl)-5-O-(2-thienylmethyl)-D-mannitol], the Ki came out at 230 nM.

Regarding `O[C@@H]([C@H](O)[C@@H](COCc1ccccc1)OCC=Cc1ccccc1)[C@@H](COCc1ccccc1)OCC=Cc1ccccc1` [Compound 84, 1,6-di-O-benzyl, 2,5-di-O-cinnamyl-D-mannitol], the Ki was more than 1000 nM.

Turning to `O[C@@H]([C@H](O)[C@@H](COCc1ccccc1)OCc1ccc2ccccc2c1)[C@@H](COCc1ccccc1)OCc1ccc2ccccc2c1` [Compound 80, 1,6-di-O-benzyl-2,5-di-O-(2-naphthylmethyl)-D-mannitol], the Ki was more than 1250 nM.

For `O[C@@H]([C@H](O)[C@@H](COCc1ccccc1)OCc1ccccn1)[C@@H](COCc1ccccc1)OCc1ccccn1` [Compound 88, 1,6-di-O-benzyl-2,5-di-O-(2-pyridylmethyl)-D-mannitol], the Ki was found to be 28000 nM. Still for that read-out and setting: the figure for `O[C@@H]([C@H](O)[C@@H](COCc1ccccc1)OCc1ccncc1)[C@@H](COCc1ccccc1)OCc1ccncc1` [Compound 86, 1,6-di-O-benzyl-2,5-di-O-(4-pyridylmethyl)-D-mannitol] is more than 50000 nM; for `C=CCOC[C@@H](OCc1ccccc1)[C@@H](O)[C@H](O)[C@@H](COCC=C)OCc1ccccc1` [Compound 90, 1,6-di-O-allyl-2,5-di-O-benzyl-D-mannitol] it is 12000 nM; for `O[C@H]([C@@H](O)[C@H](COCc1cccs1)OCc1ccccc1)[C@H](COCc1cccs1)OCc1ccccc1` (stereo in doubt) [Compound 92, 1,6-di-O-(2-thienylmethyl)-2,5-di-O-benzyl-L-mannitol] it is 800 nM.

The same test, now with this note: Table 3, di- and tri-substituted D-mannitol derivatives; pH 4.7, 30° C., substrate 10 μM, protease 18.3 nM.
As to `O=[N+]([O-])c1ccc(CO[C@H](COCc2ccccc2)[C@@H](O)[C@H](O)[C@H](O)COCc2ccccc2)cc1` [Compound 99, 1,6-di-O-benzyl-2-O-(4-nitrobenzyl)-D-mannitol], the Ki came to 45000 nM.
